Results on 98 molecules are retold here after a melting point compilation (Tetko et al.).

The conditions of the data set: a range is the spread between reports.
Broadly, the melting point is the temperature, or range, at which the solid turns liquid. Turning to `O=C(O)c1cc(F)ccc1F`, the melting point lay in the range of 130 to 133 °C. Then `CC1(O)CCC(C(C)(C)O)CC1` (stereo not drawn), with 158 °C; and `CC(C)CC(N)=O`, with 136 to 137 °C.

`Clc1ccc(C(c2ccc(Cl)cc2)C(Cl)Cl)cc1` returned a melting point of 109 to 110 °C. Then `CCNC(=S)NCC`, with 77 to 78 °C.

As to `N#CCc1ccc(CC#N)cc1`, the melting point was 95 to 96 °C. Molecule `COc1cccc(C(=O)O)c1` had a melting point of 103 to 107 °C. `Clc1cc(Cl)c(Cl)c(Cl)c1` registered a melting point of 51.5 to 55 °C. For `Nc1cccc(Br)c1` the value was 16 to 18.5 °C; for `NCCCCCCO`, 56 to 57 °C; for `CC(C)c1ccccc1O`, 15 to 16 °C. As to `O=Cc1ccc2ccccc2n1`, the melting point fell in the range of 68 to 71 °C. As to `C1CCOCC1`, the melting point is -49 to -45 °C. `CC(C)OC(=O)Nc1ccccc1`: the melting point was in the range of 87.3 to 88 °C. Then `CC(=O)c1cccc(N)c1`, with 96 to 98.5 °C; and `CCCCCCCCCCCCCCCCCCC(=O)O`, with 69 to 69.4 °C. As to `CCCCCCCCCCCCCCCCCC`, the melting point fell in the range of 28 to 28.2 °C.

For `OCc1ccccc1O`, the melting point fell in the range of 85 to 87 °C. For `CC(C)(C)OOC(=O)c1ccccc1` the value was 7 to 8 °C. For `Clc1ccc(Cl)cc1` the value was 52.1 to 55 °C; for `NC(=O)c1ccc(Cl)cc1`, 173 to 178 °C. For `N#Cc1cccc([N+](=O)[O-])c1` the value was 116 to 117 °C; for `O=C(O)c1ccc([N+](=O)[O-])cc1C(=O)O`, 162 to 163 °C; for `C=CC(CC)CC`, -128 to -127 °C. As for `CCc1ccccc1Cl`, the melting point was -83 to -82.7 °C.

Molecule `O=C1CCCCC1c1ccccc1` (stereo not drawn) had a melting point of 57 to 58 °C. `CC(C)(C)C` registered a melting point of -17 to -16.4 °C.

Molecule `COc1ccc(N)c(OC)c1` had a melting point of 33.5 to 35 °C. Then `COC(=O)c1cc2ccccc2cc1O`, with 73 to 75.5 °C; and `O=C(O)c1cc(Br)cc(Br)c1O`, with 226 to 228 °C; and `COCCOC(C)=O`, with -65.1 to -65 °C. For `O=C1CCCN1` the value was 23 to 24 °C.

Turning to `O=C(O)c1ccccc1-c1ccccc1`, the melting point was in the range of 112 to 115 °C. The molecule `Clc1cc(Cl)c(Cl)c(Cl)c1Cl` gave a melting point of 85 to 86 °C. Take `CC(C)CCOC=O`: the melting point is -93.5 to -93 °C.

In the case of `O=C1C=CC(=O)N1`, the melting point was 92 to 94 °C. Then `Cc1c2ccccc2cc2ccccc12`, with 78 to 81.5 °C; and `O=C(O)C(Cl)(Cl)Cl`, with 56 to 57.5 °C. In the case of `O=C1OC2(OC=C(c3ccccc3)C2=O)c2ccccc21` (stereo not drawn), the melting point was 154 to 157 °C. Turning to `O=Cc1cccc(Cl)c1`, the melting point is 17 to 18 °C.

Turning to `c1ccc(Nc2ccc(-c3ccc(Nc4ccccc4)cc3)cc2)cc1`, the melting point was in the range of 247 to 248 °C. As to `CC(C)(C)I`, the melting point was -38.2 to -38 °C. For `O=C(O)Cc1cccc(O)c1`, the melting point lay within 130 to 132 °C. Then `CCN(CC)C(=S)SSC(=S)N(CC)CC`, with 70 to 71.5 °C; and `CC12CCC(C1)C(C)(C)C2O` (stereo not drawn), with 43.5 to 48 °C; and `O=C(n1ccnc1)n1ccnc1`, with 118 to 119 °C. Regarding `CC(C=CC1=C(C)CCCC1(C)C)=CC=CC(C)=CCO`, the melting point fell in the range of 63 to 63.5 °C. Then `Cc1ccc2cccnc2c1`, with 36.5 to 39 °C; and `Nc1ccc(Cl)cc1C(=O)c1ccccc1`, with 96 to 99 °C; and `c1cc2cccc3c4cccc5cccc(c(c1)c23)c54`, with 274 to 278 °C.

`CCOc1ccc(C#N)cc1` came in with a melting point of 61.5 to 62 °C.

`BrCC(Br)c1ccccc1` (stereo not drawn) gave a melting point of 72 to 75 °C.

Take `CCCCCCCCCCCCCCCCCO`: the melting point lay within 53.8 to 58 °C.

In turn, `O=[N+]([O-])c1ccc(O)cc1` gave a melting point of 112 to 115 °C. Then `C=CC(=O)OC`, with -76.5 to -75 °C; and `ClC(Cl)c1ccccc1`, with -17 to -16 °C. Molecule `CCN(CC)CC` came in with a melting point of -115 °C. `O=S(=O)(Cl)c1ccc2ccccc2c1` displayed a melting point of 76 to 81 °C. Then `Oc1cc(O)c(Cl)cc1Cl`, with 113 to 115 °C; and `COc1cccc(C=O)c1O`, with 41 to 44.5 °C. Turning to `O=C1CCCCCCCCC1`, the melting point was in the range of 24 to 28 °C. Molecule `CC(C)(C)Br` displayed a melting point of -20 to -16 °C. For the molecule `O=S(=O)(Cl)c1ccc(I)cc1`, the melting point was in the range of 82 to 85 °C. Then `CCc1ccc(C(=O)O)cc1`, with 112 to 113 °C; and `O=C1CCCC1`, with -51.9 to -51 °C; and `CCS`, with -148 °C. For `CCCCCCCCCCCCCCCCCCCCCCCCCCCCC` the value was 63.7 to 66 °C. For `COc1ccc(C=O)c(OC)c1` the value was 69 to 72 °C; for `CCc1ccccc1CC`, -31.2 to -31 °C; for `C=CCCCCCCCCCCCCCCCCCC`, 28.5 to 29 °C. `CC(=O)CC(=O)OC(C)C` returned a melting point of -27.3 to -27 °C. Turning to `C=CC(=O)NC(C)(C)CC(C)=O`, the melting point lay in the range of 55 to 57.5 °C. For `CC(C)(C)c1ccc(C(=O)O)cc1` the value was 164 to 166 °C; for `O=C(O)CCCCCCCC(=O)O`, 102 to 106 °C; for `c1ccc(Nc2cccc3ccccc23)cc1`, 61 to 62 °C. Turning to `O=Cc1cccc(C=O)c1`, the melting point was in the range of 87.8 to 89.5 °C. For `N#CCC#N`, the melting point fell in the range of 32 to 34 °C. For `C[C@H](O)[C@@H](C)O` the value was 33 to 34.5 °C; for `CCCCCCCCCCCCCCCCC`, 21 to 22 °C; for `CCC(CC)(CC)CC`, -33.1 to -33 °C. In the case of `C1COCOC1`, the melting point was -45 to -42 °C.

The molecule `CCC1(O)CC2CN(CCc3c([nH]c4ccccc34)C(C(=O)OC)(c3cc4c(cc3OC)N(C=O)C3C(O)(C(=O)OC)C(OC(C)=O)C5(CC)C=CCN6CCC43C65)C2)C1` (stereo not drawn) gave a melting point of 219 °C. Turning to `c1ccc(-c2nc(-c3ccccc3)c(-c3ccccc3)[nH]2)cc1`, the melting point was 275 to 276 °C. Consider `CCCCCCC(C)C`, for which the melting point was -80.3 to -80 °C.

In turn, `CC(=O)c1ccc([N+](=O)[O-])cc1` showed a melting point of 79 to 81.8 °C. Take `CCOC(=O)CC`: the melting point was -73.9 to -73 °C. `CC12CCC3c4ccc(O)cc4CCC3C1CC(O)C2O` (stereo not drawn): the melting point lay in the range of 281 to 282 °C. For `Cc1cccc(Cl)c1Cl` the value was 4 to 6 °C; for `C=CCCCCCCCC`, -66.3 to -66 °C; for `O=S(=O)(Cl)c1ccccc1`, 14.5 to 15 °C. In turn, `CCC1(c2ccccc2)C(=O)NC(=O)NC1=O` returned a melting point of 174 to 176 °C. For `O=c1[nH]c2ccccc2n1CCCN1CCC(n2c(=O)[nH]c3cc(Cl)ccc32)CC1` the value was 238 to 242 °C. Then `CCCc1ccc(C)cc1`, with -64 to -63.6 °C; and `O=C(O)CCCCCC(=O)O`, with 104 to 106 °C; and `N#CCc1ccc(I)cc1`, with 48 to 53 °C. Then `O=C(O)CCI`, with 81.5 to 82 °C; and `S=C=Nc1ccc(N=C=S)cc1`, with 131 to 132 °C. Take `N#Cc1cccc(C(=O)O)c1`: the melting point lay within 219 to 223 °C.
